{"source": "patent US11331299B2", "about": "“Medicinal use of serrulatane diterpenes” (The University of Sydney, priority 2016, dated 2022)", "assay_in_all_cases": "biochemical", "type_in_all_cases": "binding", "key": {"[1]": {"target": "receptors (Bioprint panel) (Homo sapiens, UniProt P04150)", "details": "read-out: % Inhibition of Control Specific Binding"}, "[2]": {"target": "receptors (Bioprint panel) (Homo sapiens, UniProt Q15722)", "sequence (Q15722 whole entry)": "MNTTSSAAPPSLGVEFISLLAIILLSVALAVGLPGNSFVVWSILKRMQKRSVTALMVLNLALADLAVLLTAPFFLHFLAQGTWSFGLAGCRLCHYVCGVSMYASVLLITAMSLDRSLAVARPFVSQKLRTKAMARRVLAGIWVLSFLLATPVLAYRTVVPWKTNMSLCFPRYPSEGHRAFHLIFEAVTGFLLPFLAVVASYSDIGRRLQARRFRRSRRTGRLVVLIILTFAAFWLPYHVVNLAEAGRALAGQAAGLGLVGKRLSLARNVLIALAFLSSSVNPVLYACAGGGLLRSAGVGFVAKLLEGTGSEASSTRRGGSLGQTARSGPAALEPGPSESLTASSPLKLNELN", "details": "read-out: % Inhibition of Control Specific Binding"}, "[3]": {"target": "receptors (Bioprint panel) (Rattus norvegicus, UniProt Q02294)", "details": "Ca2+ channel (N) (antagonist radioligand); 10 μM; read-out: % Inhibition of Control Specific Binding"}, "[4]": {"target": "receptors (Bioprint panel) (Homo sapiens, UniProt P24530)", "sequence (P24530 27-442)": "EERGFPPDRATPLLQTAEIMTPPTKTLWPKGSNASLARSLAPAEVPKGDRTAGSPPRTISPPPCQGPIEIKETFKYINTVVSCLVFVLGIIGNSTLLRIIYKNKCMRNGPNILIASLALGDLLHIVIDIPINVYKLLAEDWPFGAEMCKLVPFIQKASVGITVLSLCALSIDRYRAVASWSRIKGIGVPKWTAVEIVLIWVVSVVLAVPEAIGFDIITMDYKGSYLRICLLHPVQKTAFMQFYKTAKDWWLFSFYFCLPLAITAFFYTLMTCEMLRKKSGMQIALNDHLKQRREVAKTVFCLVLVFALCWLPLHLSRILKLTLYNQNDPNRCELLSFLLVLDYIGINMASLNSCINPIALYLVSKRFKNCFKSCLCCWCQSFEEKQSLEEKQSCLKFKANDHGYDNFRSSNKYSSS", "details": "[…] (h) (agonist radioligand); 10 μM; read-out: % Inhibition of Control Specific Binding"}, "[5]": {"target": "receptors (Bioprint panel) (Homo sapiens, UniProt P37288)", "details": "VASOPRESSIN V1a (h) (agonist radioligand); 10 μM; read-out: % Inhibition of Control Specific Binding"}, "[6]": {"target": "receptors (Bioprint panel) (Homo sapiens, UniProt Q13639)", "sequence (Q13639 other isoform, or with tags, fused parts or gaps)": "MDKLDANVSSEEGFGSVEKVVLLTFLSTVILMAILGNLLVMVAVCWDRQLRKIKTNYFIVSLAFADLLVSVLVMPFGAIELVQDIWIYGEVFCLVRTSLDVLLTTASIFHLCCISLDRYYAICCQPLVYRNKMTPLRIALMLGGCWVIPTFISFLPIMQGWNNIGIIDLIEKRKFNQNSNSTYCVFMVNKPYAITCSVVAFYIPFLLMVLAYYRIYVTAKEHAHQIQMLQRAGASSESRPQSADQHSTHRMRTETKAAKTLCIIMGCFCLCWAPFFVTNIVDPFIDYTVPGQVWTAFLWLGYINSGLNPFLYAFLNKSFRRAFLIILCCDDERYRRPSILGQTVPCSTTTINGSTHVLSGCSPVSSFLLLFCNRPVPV", "details": "read-out: % Inhibition of Control Specific Binding"}, "[7]": {"target": "receptors (Bioprint panel) (Homo sapiens, UniProt P25105)", "details": "[…] ACTIVATED FACTOR PAF (h) (agonist radioligand); 10 μM; read-out: % Inhibition of Control Specific Binding"}, "[8]": {"target": "receptors (Bioprint panel) (Homo sapiens, UniProt P11229)", "details": "[…] M1 (h) (antagonist radioligand); 10 μM; read-out: % Inhibition of Control Specific Binding"}, "[9]": {"target": "receptors (Bioprint panel) (Homo sapiens, UniProt P35348)", "sequence (P35348 whole entry)": "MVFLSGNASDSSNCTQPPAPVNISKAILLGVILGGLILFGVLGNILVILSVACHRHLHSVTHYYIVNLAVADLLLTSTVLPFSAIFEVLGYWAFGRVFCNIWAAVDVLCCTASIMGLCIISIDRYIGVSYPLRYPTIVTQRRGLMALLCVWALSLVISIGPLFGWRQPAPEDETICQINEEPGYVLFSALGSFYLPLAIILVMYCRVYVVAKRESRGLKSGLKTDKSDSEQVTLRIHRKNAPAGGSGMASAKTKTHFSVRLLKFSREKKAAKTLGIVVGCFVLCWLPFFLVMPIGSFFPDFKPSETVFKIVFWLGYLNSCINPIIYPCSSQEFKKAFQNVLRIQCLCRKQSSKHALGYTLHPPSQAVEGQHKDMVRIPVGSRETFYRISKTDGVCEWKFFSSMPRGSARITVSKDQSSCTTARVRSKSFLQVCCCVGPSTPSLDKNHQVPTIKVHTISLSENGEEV", "details": "[…] alpha 1A (h) (antagonist radioligand); 10 μM; read-out: % Inhibition of Control Specific Binding"}, "[10]": {"target": "receptors (Bioprint panel) (Homo sapiens, UniProt P25021)", "details": "HISTAMINE H2 (h) (antagonist radioligand); 10 μM; read-out: % Inhibition of Control Specific Binding"}, "[11]": {"target": "receptors (Bioprint panel) (Homo sapiens, UniProt P10275)", "details": "10 μM"}, "[12]": {"target": "receptors (Bioprint panel) (Homo sapiens, UniProt P43116)", "sequence (P43116 whole entry)": "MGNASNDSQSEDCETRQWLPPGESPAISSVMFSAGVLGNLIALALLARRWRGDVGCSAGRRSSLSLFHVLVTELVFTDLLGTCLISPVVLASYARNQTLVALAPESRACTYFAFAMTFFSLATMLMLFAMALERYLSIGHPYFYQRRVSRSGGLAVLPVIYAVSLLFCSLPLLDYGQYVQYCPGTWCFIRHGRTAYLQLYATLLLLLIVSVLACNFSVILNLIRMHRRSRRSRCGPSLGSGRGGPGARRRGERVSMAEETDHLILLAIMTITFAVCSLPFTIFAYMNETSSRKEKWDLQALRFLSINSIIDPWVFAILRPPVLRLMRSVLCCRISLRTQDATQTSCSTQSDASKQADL", "details": "PROSTANOID EP2 (h) (agonist radioligand); 10 μM; read-out: % Inhibition of Control Specific Binding"}, "[13]": {"target": "receptors (Bioprint panel) (Homo sapiens, UniProt P34969)", "sequence (P34969 whole entry)": "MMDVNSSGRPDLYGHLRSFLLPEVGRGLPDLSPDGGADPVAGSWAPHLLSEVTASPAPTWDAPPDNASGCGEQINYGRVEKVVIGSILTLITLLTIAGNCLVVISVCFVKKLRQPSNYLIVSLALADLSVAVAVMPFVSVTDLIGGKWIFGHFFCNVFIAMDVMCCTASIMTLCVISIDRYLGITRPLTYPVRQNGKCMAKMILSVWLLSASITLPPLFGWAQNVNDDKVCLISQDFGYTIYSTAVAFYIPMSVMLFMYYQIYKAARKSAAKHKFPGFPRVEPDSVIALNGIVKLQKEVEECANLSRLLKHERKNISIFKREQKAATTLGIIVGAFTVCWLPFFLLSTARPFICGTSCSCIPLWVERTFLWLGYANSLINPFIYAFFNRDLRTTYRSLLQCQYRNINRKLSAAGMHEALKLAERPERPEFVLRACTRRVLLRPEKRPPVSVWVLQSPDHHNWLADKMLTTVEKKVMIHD", "details": "read-out: % Inhibition of Control Specific Binding"}, "[14]": {"target": "receptors (Bioprint panel) (Homo sapiens, UniProt P25101)", "details": "[…] (h) (agonist radioligand); 10 μM; read-out: % Inhibition of Control Specific Binding"}, "[15]": {"target": "receptors (Bioprint panel) (Homo sapiens, UniProt O43193)", "sequence (O43193 whole entry)": "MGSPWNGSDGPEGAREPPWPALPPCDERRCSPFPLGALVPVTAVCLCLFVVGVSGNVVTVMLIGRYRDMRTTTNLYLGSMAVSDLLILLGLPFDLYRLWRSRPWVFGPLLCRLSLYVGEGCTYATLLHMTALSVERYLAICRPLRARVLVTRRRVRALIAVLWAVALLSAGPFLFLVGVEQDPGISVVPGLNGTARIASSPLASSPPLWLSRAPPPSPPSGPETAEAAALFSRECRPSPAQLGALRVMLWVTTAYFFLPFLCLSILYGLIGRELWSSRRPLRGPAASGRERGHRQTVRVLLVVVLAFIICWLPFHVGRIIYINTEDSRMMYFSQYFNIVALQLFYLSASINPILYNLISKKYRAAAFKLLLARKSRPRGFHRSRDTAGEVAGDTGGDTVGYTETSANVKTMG", "details": "motilin(h) (agonist radioligand); 10 μM; read-out: % Inhibition of Control Specific Binding"}, "[16]": {"target": "receptors (Bioprint panel) (Homo sapiens, UniProt P20309)", "details": "[…] M3 (h) (antagonist radioligand); 10 μM; read-out: % Inhibition of Control Specific Binding"}, "[17]": {"target": "receptors (Bioprint panel) (Homo sapiens, UniProt Q9UBS5)", "details": "GABA GABAB(1b) (h) (antagonist radioligand); 10 μM; read-out: % Inhibition of Control Specific Binding"}, "[18]": {"target": "receptors (Bioprint panel) (Homo sapiens, UniProt Q9GZV3)", "details": "choline transporter (CHT1) (h) (antagonist radioligand); 10 μM; read-out: % Inhibition of Control Specific Binding"}, "[19]": {"target": "receptors (Bioprint panel) (Homo sapiens, UniProt P02708)", "sequence (P02708 whole entry)": "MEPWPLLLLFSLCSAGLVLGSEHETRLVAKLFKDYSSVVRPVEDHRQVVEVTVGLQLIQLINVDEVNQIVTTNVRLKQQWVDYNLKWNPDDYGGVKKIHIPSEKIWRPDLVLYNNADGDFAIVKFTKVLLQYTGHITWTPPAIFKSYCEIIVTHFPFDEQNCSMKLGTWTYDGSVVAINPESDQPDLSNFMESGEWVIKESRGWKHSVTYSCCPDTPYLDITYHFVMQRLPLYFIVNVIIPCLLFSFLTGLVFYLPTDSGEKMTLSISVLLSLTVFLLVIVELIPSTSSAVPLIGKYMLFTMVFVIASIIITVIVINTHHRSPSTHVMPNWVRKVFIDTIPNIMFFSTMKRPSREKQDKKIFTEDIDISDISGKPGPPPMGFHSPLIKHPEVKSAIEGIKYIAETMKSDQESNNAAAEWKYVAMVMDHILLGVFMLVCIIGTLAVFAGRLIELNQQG", "details": "NICOTINIC […] N muscle-type (h) (antagonist radioligand); 10 μM; read-out: % Inhibition of Control Specific Binding"}, "[20]": {"target": "receptors (Bioprint panel) (Homo sapiens, UniProt P08913)", "sequence (P08913 whole entry)": "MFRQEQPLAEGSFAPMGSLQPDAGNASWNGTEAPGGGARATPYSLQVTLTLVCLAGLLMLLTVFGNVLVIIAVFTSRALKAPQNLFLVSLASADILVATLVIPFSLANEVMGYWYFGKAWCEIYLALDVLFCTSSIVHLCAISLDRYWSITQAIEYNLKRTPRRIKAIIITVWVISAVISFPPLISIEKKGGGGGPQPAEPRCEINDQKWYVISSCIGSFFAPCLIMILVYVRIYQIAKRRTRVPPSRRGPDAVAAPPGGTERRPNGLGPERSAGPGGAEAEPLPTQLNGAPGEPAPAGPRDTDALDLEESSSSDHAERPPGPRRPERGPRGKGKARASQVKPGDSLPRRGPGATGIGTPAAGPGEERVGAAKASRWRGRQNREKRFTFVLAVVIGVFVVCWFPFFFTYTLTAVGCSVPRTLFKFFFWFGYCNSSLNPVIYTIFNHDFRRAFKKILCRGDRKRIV", "details": "[…] alpha 2A (h) (antagonist radioligand); 10 μM; read-out: % Inhibition of Control Specific Binding"}, "[21]": {"target": "receptors (Bioprint panel) (Homo sapiens, UniProt P35372)", "sequence (P35372 whole entry)": "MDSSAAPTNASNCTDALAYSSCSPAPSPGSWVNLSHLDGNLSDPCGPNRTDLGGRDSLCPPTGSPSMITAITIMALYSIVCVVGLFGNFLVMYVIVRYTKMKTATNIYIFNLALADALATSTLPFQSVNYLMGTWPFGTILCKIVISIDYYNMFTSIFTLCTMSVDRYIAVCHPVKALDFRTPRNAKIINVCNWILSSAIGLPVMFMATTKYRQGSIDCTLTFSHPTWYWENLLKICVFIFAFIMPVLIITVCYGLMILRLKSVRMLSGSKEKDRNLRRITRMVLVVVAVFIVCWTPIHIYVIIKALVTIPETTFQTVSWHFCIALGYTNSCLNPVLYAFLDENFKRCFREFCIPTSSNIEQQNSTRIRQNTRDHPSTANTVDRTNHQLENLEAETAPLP", "details": "OPIOD & OPIOID-LIKE mu (MOP) (h) (agonist radioligand); 10 μM; read-out: % Inhibition of Control Specific Binding"}, "[22]": {"target": "receptors (Bioprint panel) (Homo sapiens, UniProt P47871)", "sequence (P47871 whole entry)": "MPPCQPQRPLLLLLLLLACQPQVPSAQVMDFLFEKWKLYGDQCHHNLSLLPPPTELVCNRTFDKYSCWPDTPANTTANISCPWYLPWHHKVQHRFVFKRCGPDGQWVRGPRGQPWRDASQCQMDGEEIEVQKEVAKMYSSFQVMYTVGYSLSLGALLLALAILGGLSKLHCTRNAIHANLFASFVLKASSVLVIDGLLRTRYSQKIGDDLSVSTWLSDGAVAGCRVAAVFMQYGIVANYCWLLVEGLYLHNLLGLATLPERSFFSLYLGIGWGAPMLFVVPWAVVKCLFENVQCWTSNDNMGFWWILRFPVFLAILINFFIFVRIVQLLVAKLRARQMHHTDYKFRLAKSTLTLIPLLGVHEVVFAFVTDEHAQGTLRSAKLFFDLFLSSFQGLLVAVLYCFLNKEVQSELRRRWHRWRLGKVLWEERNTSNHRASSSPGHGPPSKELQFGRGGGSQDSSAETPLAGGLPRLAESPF", "details": "glucagon (h) (agonist radioligand); 10 μM; read-out: % Inhibition of Control Specific Binding"}, "[23]": {"target": "receptors (Bioprint panel) (Homo sapiens, UniProt P41143)", "details": "OPIOD & OPIOID-LIKE delta (DOP) (h) (agonist radioligand); 10 μM; read-out: % Inhibition of Control Specific Binding"}, "[24]": {"target": "receptors (Bioprint panel) (Homo sapiens, UniProt P28223)", "details": "read-out: % Inhibition of Control Specific Binding"}, "[25]": {"target": "receptors (Bioprint panel) (Homo sapiens, UniProt P50052)", "details": "A[…] AT2 (h) (agonist radioligand); 10 μM; read-out: % Inhibition of Control Specific Binding"}, "[26]": {"target": "receptors (Bioprint panel) (Homo sapiens, UniProt P32247)", "details": "BOMBESIN BB3 (h) (agonist radioligand); 10 μM; read-out: % Inhibition of Control Specific Binding"}, "[27]": {"target": "receptors (Bioprint panel) (Homo sapiens, UniProt P30518)", "details": "VASOPRESSIN V2 (h) (agonist radioligand); 10 μM; read-out: % Inhibition of Control Specific Binding"}}, "data": [{"smiles": "CC(C)=CCC[C@H](CO)[C@@H]1CC[C@@H](C)c2c1cc(C)c(O)c2O", "note": "[Compound 1, 7,8,18-trihydroxyserrulat-14-ene]", "values": [{"measurement": "inhibition at 10 µM", "setting": "[1]", "value": 47, "unit": "%"}, {"measurement": "inhibition at 10 µM", "setting": "[2]", "value": 27, "unit": "%"}, {"measurement": "inhibition at 10 µM", "setting": "[3]", "value": 5, "unit": "%"}, {"measurement": "inhibition at 10 µM", "setting": "[4]", "value": 40, "unit": "%"}, {"measurement": "inhibition at 10 µM", "setting": "[5]", "value": 12, "unit": "%"}, {"measurement": "inhibition at 10 µM", "setting": "[6]", "value": 2, "unit": "%"}, {"measurement": "inhibition at 10 µM", "setting": "[7]", "value": 39, "unit": "%"}, {"measurement": "inhibition at 10 µM", "setting": "[8]", "value": 8, "unit": "%"}, {"measurement": "inhibition at 10 µM", "setting": "[9]", "value": 17, "unit": "%"}, {"measurement": "inhibition at 10 µM", "setting": "[10]", "value": 37, "unit": "%"}, {"measurement": "% Inhibition of Control Specific Binding", "setting": "[11]", "value": "−9", "unit": "%"}, {"measurement": "inhibition at 10 µM", "setting": "[12]", "value": 53, "unit": "%"}, {"measurement": "inhibition at 10 µM", "setting": "[13]", "value": 14, "unit": "%"}, {"measurement": "inhibition at 10 µM", "setting": "[14]", "value": 6, "unit": "%"}, {"measurement": "inhibition at 10 µM", "setting": "[15]", "value": -12, "unit": "%"}, {"measurement": "inhibition at 10 µM", "setting": "[16]", "value": -3, "unit": "%"}, {"measurement": "inhibition at 10 µM", "setting": "[17]", "value": -17, "unit": "%"}, {"measurement": "inhibition at 10 µM", "setting": "[18]", "value": -41, "unit": "%"}, {"measurement": "inhibition at 10 µM", "setting": "[19]", "value": 1, "unit": "%"}, {"measurement": "inhibition at 10 µM", "setting": "[20]", "value": 35, "unit": "%"}, {"measurement": "inhibition at 10 µM", "setting": "[21]", "value": 43, "unit": "%"}, {"measurement": "inhibition at 10 µM", "setting": "[22]", "value": -20, "unit": "%"}, {"measurement": "inhibition at 10 µM", "setting": "[23]", "value": 62, "unit": "%"}, {"measurement": "inhibition at 10 µM", "setting": "[24]", "value": 9, "unit": "%"}, {"measurement": "inhibition at 10 µM", "setting": "[25]", "value": 54, "unit": "%"}, {"measurement": "inhibition at 10 µM", "setting": "[26]", "value": 26, "unit": "%"}, {"measurement": "inhibition at 10 µM", "setting": "[27]", "value": 11, "unit": "%"}]}]}
